Source: US20100284914A1 (priority 2005, published 2010)
Values after ≈ are worked out from the molar mass of the structure shown. Read-outs that look alike come from different tables or passages of the source.

Key:
[1] = system: Candida albicans CBS 562; type: cell-based; conditions: for MIC: read-out: MIC (column A)
[2] = system: Candida albicans 607; type: cell-based
[3] = system: Candida albicans 615; type: cell-based
[4] = system: Candida glabrata 4475 (resistant to azoles); type: cell-based; conditions: Nakaseomyces glabratus, 24 h, read-out: MIC
[5] = system: Candida glabrata 4681; type: cell-based; conditions: footnote c
[6] = system: Candida glabrata 4787; type: cell-based
[7] = system: Rhizopus oryzae; assay: microbe, parasite or virus in culture; type: cell-based; conditions: Rhizopus arrhizus
[8] = in vivo; conditions: male, ICR, mouse, iv
[9] = long chain lengths
[10] = system: Sprague-Dawley rats; assay: PET imaging, bio-distribution; type: in vivo; conditions: normal female Sprague-Dawley rats, 50 μCi via tail vein, imaged after 30 minutes
Experimental: The exemplary [^18F] labeled amine fluorocyanoborane according to the present embodiments, Compound [^18F]K-I4, was injected into normal rats, and was monitored by a PET/CT Philips camera.
Four normal, female Sprague-Dawley rats (250-300 grams each) were injected via the tail vein with 50 μCi of Compound [^18F]K-I4 solution in saline (4.5 mCi/ml). Fifteen minutes after injection, the rats were anesthetized with 45 mg Ketamine and 24 mg Acepromazin, and after 30 minutes each rat was imaged for 15 minutes.

[11] = Stability of the radiolabeled product by TLC; type: physicochemical; conditions: saline solution, after 10 hours, silica gel 60 F254
Experimental: The final product was tested on TLC (silica gel 60 F254) after 10 hours and found stable.

[12] = CBS562, Candida albicans CBS 562, MIC-0, 24 h, 35° C.
[13] = Candida albicans 607, MIC-0, 24 h, 35° C., read-out: MIC
[14] = Candida albicans 615, MIC-0, 24 h, 35° C., read-out: MIC
[15] = Candida glabrata 4475 (resistant to azoles), footnote c
[16] = Nakaseomyces glabratus, Candida glabrata 4787, read-out: MIC
[17] = Candida albicans, 607, 24 h, read-out: MIC
[18] = Candida albicans, 615, 24 h, read-out: MIC

SMILES	MIC [1, 12]	MIC [2, 13]	MIC [3, 14]	MIC [4, 15]	MIC [5]	other results
C[N+](C)(CCCCCCCCCC[N+](C)(C)[BH-](Br)C#N)[BH-](Br)C#N (stereo not drawn) [K-J1, N,N,N′,N′-tetramethyldecane-1,10-diamine bis-cyanobromoborane]	140 µM (≈ 64.9 µg/mL)	140 µM (≈ 64.9 µg/mL)	140 µM (≈ 64.9 µg/mL)	0.065 µg/mL (≈ 0.14 µM)	65^c μg per liter	MIC [6, 16]: 65 µM (≈ 30.2 µg/mL)
CCCCCCCCCCC[N+](C)(C)[B-](F)(Br)C#N (stereo not drawn) [K-I3, dimethyl-undecyl-amine cyanofluorobromoborane]	7.8 µM (≈ 2.61 µg/mL)	–	–	–	–	MIC [7]: 63 µg/mL (≈ 188 µM)
CCCCCCCCCCC[N+](C)(C)[BH-](F)C#N (stereo not drawn) [K-I4, dimethyl-undecyl-amine cyanofluoroborane]	64 µM (≈ 16.4 µg/mL)	64 µM (≈ 16.4 µg/mL)	64 µM (≈ 16.4 µg/mL)	–	–	–
CCCCCCC(C)(O)C[N+](C)(C)[BH2-]C#N (stereo not drawn) [K-O, 1-dimethylamino-2-methyl-octan-2-ol cyanoborane]	2210 µM (≈ 500 µg/mL)	1100 µM (≈ 249 µg/mL)	1100 µM (≈ 249 µg/mL)	> 0.25 µg/mL	–	–
C[N+](C)(C)[B-](F)(F)C#N	–	–	–	–	–	melting point: 48 °C
C[N+](C)(C)[B-](Br)(Br)C#N [K-E, trimethyl-amine cyanodibromoborane]	1970 µM (≈ 504 µg/mL)	> 1970 µM	> 1970 µM	> 0.5 µg/mL	–	–
C[N+](C)(CCCCCCCCCC[N+](C)(C)[B-](Br)(Br)C#N)[B-](Br)(Br)C#N [K-J2, N,N,N′,N′-tetramethyldecane-1,10-diamine bis-cyanodibromoborane]	–	–	–	–	65^c μg per liter	MIC ([1]; Candida albicans, CBS562, 24 h): 104 µM (≈ 64.7 µg/mL); MIC [2, 17]: 104 µM (≈ 64.7 µg/mL); MIC [3, 18]: 104 µM (≈ 64.7 µg/mL); MIC [4]: 0.065 µg/mL (≈ 0.105 µM); MIC ([6]; Nakaseomyces glabratus, 4787, read-out: MIC): 65 µM (≈ 40.4 µg/mL)
C[N+](C)([BH2-]C(=O)O)CCCCCCCCCC[N+](C)(C)[BH2-]C(=O)O [K-J3, N,N,N′,N′-tetramethyldecane-1,10-diamine bis-carboxyborane]	188 µM (≈ 64.7 µg/mL)	188 µM (≈ 64.7 µg/mL)	907 µM (≈ 312 µg/mL)	0.0312 µg/mL (≈ 0.0907 µM)	65^c μg per liter	MIC [6, 16]: 65 µM (≈ 22.4 µg/mL)
C[N+](C)([BH2-]C#N)CCCCCCCCCC[N+](C)(C)[BH2-]C#N [K-J, N,N,N′,N′-tetramethyldecane-1,10-diamine bis-cyanoborane]	–	–	–	–	–	MIC ([1]; Candida albicans, CBS562, 24 h): 408 µM (≈ 125 µg/mL); MIC [2, 17]: 408 µM (≈ 125 µg/mL); MIC [3, 18]: 817 µM (≈ 250 µg/mL); MIC [4]: 0.065 µg/mL (≈ 0.212 µM)
C[C@@H]1[C@H](O)[C@@H](C)/C=C/C=C/C=C/C=C/C=C/C=C/C=C/[C@H](O[C@@H]2O[C@H](C)[C@@H](O)[C@H](N)[C@@H]2O)C[C@@H]2O[C@](O)(C[C@@H](O)C[C@@H](O)[C@H](O)CC[C@@H](O)C[C@@H](O)CC(=O)O[C@H]1C)C[C@H](O)[C@H]2C(=O)O [CAF1, Amphotericin B, reference compound]	–	–	–	–	–	MIC (column A) ([1]; Candida albicans CBS 562, MIC-0, 24 h, 35° C.): 0.54 µM (≈ 0.499 µg/mL); MIC ([2]; Candida albicans 607, MIC-0, 24 h, 35° C.): 0.27 µM (≈ 0.25 µg/mL); MIC ([3]; Candida albicans 615, MIC-0, 24 h, 35° C.): 0.27 µM (≈ 0.25 µg/mL)
C[N+](C)(C)[BH-](F)C#N (stereo not drawn)	–	–	–	–	–	melting point: 53 °C
COC(=O)[B-](F)(F)[N+](C)(C)C	–	–	–	–	–	melting point: 66 °C
CCCCCCCCCCC[N+](C)(C)[B-](Br)(Br)C#N [K-I2, dimethyl-undecyl-amine cyanodibromoborane]	39 µM (≈ 15.4 µg/mL)	39 µM (≈ 15.4 µg/mL)	39 µM (≈ 15.4 µg/mL)	–	32^c μg per liter	MIC [6, 16]: 32 µM (≈ 12.7 µg/mL); MTD [8]: 73.1 µmol/kg
CCCCCCCCCCCCCCCCC[N+](C)(C)[BH2-]C#N [K-S, heptadecyl-dimethyl-amine cyanoborane]	–	–	–	–	–	solubility [9]: solubility problems
CCCCCCCCCCC[N+](C)(C)[BH-]([18F])C#N (stereo not drawn) [[^18F]K-I4, [^18F]dimethyl-undecyl-amine cyanofluoroborane]	–	–	–	–	–	bio-distribution by PET/CT [10]: uptake in the rat's bones; stability on TLC [11]: stable
CCCCCCCCCCC[N+](C)(C)[BH-](Br)C#N (stereo not drawn) [K-I1, dimethyl-undecyl-amine cyanobromoborane]	49 µM (≈ 15.5 µg/mL)	49 µM (≈ 15.5 µg/mL)	49 µM (≈ 15.5 µg/mL)	0.0078 µg/mL (≈ 0.0246 µM)	7.8^c μg per liter	MIC [6, 16]: 15.6 µM (≈ 4.95 µg/mL); MIC [7]: 63 µg/mL (≈ 199 µM)
